Assay [1] addresses T1, IrtABΔSID (SID-truncated IrtAB) (Mycobacterium tuberculosis, UniProt P9WQJ7+P9WQJ9).
T1 construct: gene irtA

Assay [2] concerns the target T1, IrtABΔSID (SID-truncated IrtAB). The source holds these as a separate data set.

Here are results for 2 compounds from article PMC10246721, “Cryo-EM structures for the Mycobacterium tuberculosis iron-loaded siderophore transporter IrtAB” (Protein & Cell, 2022).

`Nc1ncnc2c1ncn2[C@@H]1O[C@H](COP(=O)(O)OP(=O)(O)O)[C@@H](O)[C@H]1O` [ADP]: the cryo-EM structure result in assay [1] is recorded as “we also solved the structure of IrtABΔSID in complex with ADP”. Consider `Nc1ncnc2c1ncn2[C@@H]1O[C@H](COP(=O)(O)OP(=O)(O)OP(=O)(O)O)[C@@H](O)[C@H]1O` [ATP], for which the “ATPase activity, phosphate release (MAK-113)” value in assay [2] is reported as “ATPase activity of IrtABΔSID is comparable to that of the wild-type (WT) protein”.
